US20250161419A1, “SERPIN PEPTIDES AND METHODS OF USING THE SAME” (SERPIN PHARMA, LLC, priority 2022, published 2025)

Assays:
phospho-STAT6 = assay: IL-13 stimulated STAT6 phosphorylation in esophageal EPC2 cells (western blot); type: cell-based, human; settings: 30 minutes post IL-13 induction
Description: Esophageal EPC2 cells were treated with vehicle (ddw), A1AT or SP163M. Cells were collected at time-points indicated and western blot analysis of phospho-specific STAT6 was analyzed. […] Using CRISPER/CAS9 technology, an LRP1 knockout esophageal EPC2 cell line was created.

NFκB [1] = assay: NFκB reporter assay stimulated with LPS (THP1-XBlue-MD2-GD14 reporter cells, SEAP read-out); type: cell-based; settings: peptide 50 μg/ml before LPS 5 ng/ml, overnight
Description: The reporter cells (THP1-XBlue-MD2-GD14 cells) were treated with each peptide (50 μg/ml) before being insulted with LIPS (5 ng/ml) and incubated overnight. The NFκB inducible Secreted Embryonic Alkaline Phosphatase (SEAP) was measured in the supernatant and read for absorbance.

[2] = Peptide stability as stated in Example 1 (no method described); type: physicochemical; settings: stated as explanation of activity; no test described
NFκB [3] = assay: NFκB reporter assay stimulated with LPS (THP1-XBlue-MD2-GD14 reporter cells, SEAP read-out); type: cell-based; settings: without LPS
phospho-ERK1/2 = assay: Cell signaling analysis in PC12 cells, immunoblot of phospho-ERK1/2; type: cell-based, rat; settings: SP163M 24 or 240 nM, NGF 0.36 nM, RAP 150 nM pretreatment 15 min
Description: Cell signaling analysis: Rat PC12 cells were purchased from ATCC (CRL-1721). PC12 cells were maintained in high glucose DMEM (Gibco, USA) containing 10% heat-inactivated FBS (Gibco, USA), 5% HyClone heat-inactivated horse serum (Cytiva, USA), penicillin (100 units/ml) and streptomycin ([…]) in 6-well plates that were pre-coated with 0.01 mg/ml type IV collagen (Sigma-Aldrich, St. Louis, MO, USA). Cells were transferred to serum-free medium (SFM) 4 h prior to adding effectors, and then treated with SP163M (2.4, 24 or 240 nM); EI-tPA (12 nM), NGF (0.36 nM), or vehicle (PBS) for 10 min. In some cases, cells were pre-incubated with the competitive antagonist of LRP1, GST-RAP (150 nM) for 15 min or electroporated using the Rat Neuron Nucleofector Amaxa Kit (Lonza Biosciences) and incubated with siRNA to silence LRP1 expression (siLRP1; M-094191-01-0010, Dharmacon) for 48 h. Control cells were transfected with non-targeting control (NTC) siRNA (NTC; D-001810-10-05, Dharmacon). Cells were rinsed with ice-cold PBS and proteins were extracted in RIPA buffer (20 mM sodium phosphate, 150 mM NaCl, pH 7.4, 1% Triton X-100, 0.5% sodium deoxycholate, 0.1% SDS) supplemented with protease and phosphatase inhibitors (Roche Diagnostics, USA). After 30 min on ice, lysates were centrifuged at 15000×g for 5 min, supernatant collected and stored at −20° C. Equal amounts of protein from cell lysates (20 μg), as determined by BCA Protein Assay (ThermoFisher Scientific, Waltham, MA, USA), were subjected to 10% SDS-PAGE and electro-transferred to nitrocellulose membranes. The membranes were blocked with 5% nonfat dried milk and then incubated with primary anti-phospho-AKT (Cell Signaling Technology, Danvers, MA, USA; cat #9271S; 1:1000), anti-phospho-ERK1/2 (Cell Signaling Technology, Danvers, MA, USA; cat #9101S; 1:1000), anti-LRP1 (Cell Signaling Technology, Danvers, MA, USA; cat #64099S; 1:1000) or anti total-ERK1/2 (Cell Signaling Technology, Danvers, MA, USA; cat #91012S; 1:1000). Immunoblots were developed using Radiance, Radiance Q, and Radiance Plus chemiluminescent substrates and imaged using a BioRad ChemiDoc Imaging System (Bio-Rad, Hercules, CA, USA).

Row | Substance | NFκB activity (NFκB inducible SEAP in supernatant) (NFκB [1]) | other results
1 | A1AT: alpha-1 antitrypsin, the prototypical SERPIN [Peptide A1AT] | – | STAT6 phosphorylation (phospho-STAT6): STAT6 was phosphorylated in vehicle and A1AT treated cells
2 | V R F N R P F L (VRFNRPFL) [SP31] | anti-inflammatory activity of the peptide was lost | –
3 | R R R L R F N R P F L V V I R R R (RRRLRFNRPFLVVIRRR) [SP26] | heightened activity | –
4 | FPKMVPQFNTELKIFPEVNIK (FPKMVPQFNTELKIFPEVNIK) [SP34, reference compound] | neither the scrambled core control peptide nor the AAT 0-36 fragment decreased the NFκB activity | –
5 | LRFNRPFLVVI [SP24] | lack of function | –
6 | VKFNKPFVFLM (SP16 peptide core sequence including the LRP1 binding site; listed as Homo sapiens) [SP20] | did not have an inhibitory effect | peptide stability [2]: unstable
7 | VRFNRPFLMII [SP28] | lack of function | –
8 | SIPPEVKFNKPFVFLMIEQNTKSPLFMGKVVNP (SIPPEVKFNKPFVFLMIEQNTKSPLFMGKVVNP; SP16 peptide core sequence including the LRP1 binding site; listed as Homo sapiens) [SP8, reference compound] | neither the scrambled core control peptide nor the AAT 0-36 fragment decreased the NFκB activity | NFkB induction by the peptide itself (NFκB [3]): showed NFkB inducible properties without the need for LPS
9 | R R R V R F N R P F L M I I R R R (RRRVRFNRPFLMIIRRR) [SP29] | heightened activity | –
10 | NGF: NGF-β purchased from Sigma, cell signaling control [reference compound] | – | activation of phospho-ERK1/2 after 10 min, with or without RAP (phospho-ERK1/2): activated ERK1/2
11 | R R R V K F N K P F V F L M R R R (RRRVKFNKPFVFLMRRR; SP16 peptide core sequence including the LRP1 binding site) [SP22] | NFκB activity was significantly reduced | –
12 | RRRVKFNKPFVFLMIEQNTKRRR (RRRVKFNKPFVFLMIEQNTKRRR; SP16 peptide core sequence including the LRP1 binding site) [SP21] | NFkB inhibition increased as well relative to SP16 | peptide stability [2]: stability increased
13 | R R R V R F N R P F L R R R (RRRVRFNRPFLRRR) [SP32] | could not be restored with the poly arginine flanks | –
